IC50 data for 13 compounds are collected here from patent publication US10213409B2, “Substituted benzofurans, benzothiophenes, benzoselenophenes and indoles and their use as tubulin polymerisation inhibitors” (Bionomics Limited, priority 2006, dated 2019).

Assay [1] has as its system Human umbilical vein endothelial cells (HUVECs), tumour type activated (Tum). Put plainly: Proliferation Assay - Activated Endothelium (MTT). The following applies: Homo sapiens, HUVEC; tumour type activated endothelial cells. It counts as cell-based. The protocol: Proliferation Assay—Activated Endothelium:
Cells were cultured overnight at 37° C. 5% CO2. Medium was subsequently replaced with fresh medium including the compound or negative control. Cells were cultured for a period of 48 hrs. An MTT assay was performed to measure changes in cell numbers. Briefly, 20 μl of MTT reagent was added to cells containing 100 μl of EGM2 and incubated at 37° C. for 2 hours.

The test system of assay [2] is Human umbilical vein endothelial cells (HUVECs), normal quiescent type (Norm). Put plainly: Proliferation Assay - Quiescent Endothelium (MTT). The format is cell-based. The note with it: HUVEC. The procedure:
Proliferation Assay—Quiescent Endothelium:
Cells were cultured overnight at 37° C. 5% CO2. Medium was subsequently replaced with fresh medium including the compound or negative control. Cells were cultured for a period of 48 hrs. An MTT assay was performed to measure changes in cell numbers. Briefly, 20 μl of MTT reagent was added to cells containing 100 μl of EBM2+0.5% FBS and incubated at 37° C. for 2 hours.

`COc1cc(C(=O)c2c(C)sc3c(O)c(OC)ccc23)cc(OC)c1OC` [Example 42, 7-Hydroxy-6-methoxy-2-methyl-3-(3,4,5-trimethoxybenzoyl)benzo[b]thiophene]: the IC50 was in the range of 0.1 to 1 nM in assay [1] and 1 to 10 nM in assay [2].

`COc1cc(C(=O)c2c(Cn3ccnc3)oc3c(O)c(OC)ccc23)cc(OC)c1OC` [Example 35, 2-(1H-Imidazol-1-yl)methyl-3-(3,4,5-trimethoxybenzoyl)-6-methoxy-7-hydroxy-benzo[b]furan]: the concentration for half-maximal inhibition (IC50) in assay [1] and in assay [2] was 1 to 10 nM throughout.

As to `COc1cc(C(=O)c2c(C)[nH]c3c(O)c(OC)ccc23)cc(OC)c1O` [Example 40, 3-(3,5-Dimethoxy-4-hydroxybenzoyl)-7-hydroxy-6-methoxy-2-methyl-1H-indole], the figures for the half-maximal inhibitory concentration (IC50) in assay [1] and in assay [2] were 1 to 10 nM and 10 to 100 nM, respectively.

In the case of `COc1ccc2c(C(=O)c3cc(OC)c(OC)c(OC)c3)c[nH]c2c1` [Comparator H, reference compound], the IC50 in assay [1] and in assay [2] was 1 to 10 nM in each case.

Regarding `COc1cc(C(=O)c2c(NCCNC(=O)OC(C)(C)C)oc3c(O)c(OC)ccc23)cc(OC)c1OC` [Example 26, tert-Butyl-2-(7-hydroxy-6-methoxy-3-(3,4,5-trimethoxybenzoyl)benzofuran-2-ylamino)ethyl carbamate], the IC50 in assay [1] and in assay [2] was 1 to 10 nM throughout.

On to `COc1cc(C(=O)c2c(CN(C)C)oc3c(O)c(OC)ccc23)cc(OC)c1OC` [Example 34, 2-Dimethylaminomethylene-3-(3,4,5-tri-methoxy-benzoyl)-6-methoxy-7-hydroxy-benzo[b]furan], for which the 50% inhibitory concentration (IC50) in assay [1] and in assay [2] was 1 to 10 nM in each case.

As for `COc1cc(C(=O)c2c(NCCS(N)(=O)=O)oc3c(O)c(OC)ccc23)cc(OC)c1OC` [Example 45, 2-N-(Aminoethanesulphonamide)-3-(3,4,5-trimethoxybenzoyl)-6-methoxy-7-hydroxy-benzo[b]furan], the half-maximal inhibitory concentration (IC50) in assay [1] and in assay [2] was 1 to 10 nM each time.

On to `COc1cc(C(=O)c2c(CN3CCN(C)CC3)oc3c(O)c(OC)ccc23)cc(OC)c1OC` [Example 37, 2-(4-Methylpiperazin-1-yl)methyl-3-(3,4,5-tri-methoxy-benzoyl)-6-methoxy-7-hydroxy-benzo[b]furan], for which the IC50 in assay [1] and in assay [2] was 10 to 100 nM in each case.

For `COc1cc(C(=O)c2c(C)[nH]c3c(O)c(OC)ccc23)cc(OC)c1OC` [Example 39, 7-Hydroxy-6-methoxy-2-methyl-3-(3,4,5-trimethoxybenzoyl)-1H-indole], the values for the 50% inhibitory concentration (IC50) in assay [1] and in assay [2] were 0.01 to 0.1 nM and 0.1 to 1 nM, respectively.

For `COc1cc(C(=O)c2c(NCCNC(=N)N)oc3c(O)c(OC)ccc23)cc(OC)c1OC` [Example 28, 1-[2-(7-hydroxy-6-methoxy-3-(3,4,5-trimethoxybenzoyl)benzofuran-2-ylamino)ethyl]guanidine], the results for the concentration for half-maximal inhibition (IC50) in assay [1] and in assay [2] were 100 to 1000 nM and 10 to 100 nM, respectively.

Consider `COc1cc(C(=O)c2c(C)oc3c(O)c(OC)ccc23)cc(OC)c1O` [Example 46, 3-(4-Hydroxy-3,5-di-methoxy-benzoyl)-7-hydroxy-6-methoxy-2-Methyl-benzo[b]furan], for which the IC50 is 10 to 100 nM in assay [1] and 100 to 1000 nM in assay [2].

Take `COC(=O)CN(C)Cc1oc2c(O)c(OC)ccc2c1C(=O)c1cc(OC)c(OC)c(OC)c1` [Example 43, 2-[(N-Methyl-2-amino-aceticacid methyl ester)-methenyl)-3-(3,4,5-trimethoxybenzoyl)-6-methoxy-7-hydroxy-benzo[b]furan]: the half-inhibitory concentration (IC50) in assay [1] and in assay [2] was 1 to 10 nM throughout.

On to `COc1cc(C(=O)c2c(Cn3nnc(N)n3)oc3c(O)c(OC)ccc23)cc(OC)c1OC` [Example 36, 2-(5-amino-2H-tetrazol-2-yl)-methyl-3-(3,4,5-tri-methoxy-benzoyl)-6-methoxy-7-hydroxy-benzo[b]furan], for which the IC50 in assay [1] and in assay [2] was 1 to 10 nM in each case.
